According to patent publication US4016158A, “Cephalosporin derivatives” (Roussel-UCLAF, priority 1971, dated 1977):

Assays:
Assay in all cases: bactericidal activity (germs still alive)
Type in all cases: cell-based
[1] = tested on: Streptococcus hemolyticus 920; parameters: key: +++: all the germs are still alive; +: it remains some colonies; -: it does not remain any germ
Experimental: (§1) The bactericidal activity of product A was ascertained by determining the number of germs still alive after treatment with increasing doses of antibiotic on a liquid media. From the cultures in tubes having 72 hours (previously described method), were placed on agar in Petri dishes a constant sample of the last tube having grown and of the following tubes where no more growth in transillumination is observed. After 48 hours of culture in the Petri dishes, the number of colonies was ascertained.

Escherichia coli 070 = tested on: Escherichia coli 070; parameters: key: +++: all the germs are still alive; +: it remains some colonies; -: it does not remain any germ
Experimental: as §1

[2] = tested on: Diplococcus pneumoniae 735; parameters: key: +++: all the germs are still alive; +: it remains some colonies; -: it does not remain any germ
Experimental: as §1

Shigella sonnei = tested on: Shigella sonnei; parameters: key to germs still alive: +++: all the germs are still alive; +: it remains some colonies; -: it does not remain any germ
Experimental: as §1

[3] = tested on: Staphylococcus aureus 8514; parameters: key to germs still alive: +++: all the germs are still alive; +: it remains some colonies; -: it does not remain any germ
Experimental: as §1

[4] = tested on: Staphylococcus aureus 9482; parameters: key to germs still alive: +++: all the germs are still alive; +: it remains some colonies; -: it does not remain any germ
Experimental: as §1

[5] = tested on: Staphylococcus aureus 54146; parameters: key to germs still alive: +++: all the germs are still alive; +: it remains some colonies; -: it does not remain any germ
Experimental: as §1

[6] = tested on: Staphylococcus aureus 1098; parameters: key to germs still alive: +++: all the germs are still alive; +: it remains some colonies; -: it does not remain any germ
Experimental: as §1

CC(C)C1=C(C(=O)O)N2C(=O)[C@@H](NC(=O)[C@H](N)c3ccccc3)[C@H]2SC1 [Example 9, L (+) cis 7-[D (-)-α-aminophenylacetamido]-3-isopropyl-3-cepheme-4-carboxylic acid]
germs still alive ([1]; 2 μg/ml): +++ | germs still alive ([1]; 3 μg/ml): - | germs still alive (Escherichia coli 070; 30 μg/ml): +++ | germs still alive (Escherichia coli 070; 40 μg/ml): - | germs still alive ([2]; 1 μg/ml): +++ | germs still alive ([2]; 2 μg/ml): - | germs still alive ([2]; 3 μg/ml): - | germs still alive (Shigella sonnei; 20 μg/ml): +++ | germs still alive (Shigella sonnei; 30 μg/ml): + | number of colonies (Shigella sonnei; 40 μg/ml): 9 colonies | germs still alive (Shigella sonnei; 60 μg/ml): - | germs still alive ([3]; 1 μg/ml): +++ | germs still alive ([3]; 2 μg/ml): +++ | number of colonies ([3]; 3 μg/ml): a few | germs still alive ([3]; 5 μg/ml): - | germs still alive ([4]; 1 μg/ml): +++ | number of colonies ([4]; 2 μg/ml): 1 colonie | number of colonies ([4]; 3 μg/ml): 2 colonies | germs still alive ([4]; 5 μg/ml): - | germs still alive ([5]; 1 μg/ml): +++ | germs still alive ([5]; 2 μg/ml): + | number of colonies ([5]; 3 μg/ml): 3 colonies | germs still alive ([5]; 5 μg/ml): - | germs still alive ([6]; 1 μg/ml): +++ | germs still alive ([6]; 2 μg/ml): +++ | number of colonies ([6]; 3 μg/ml): 1 colonies | germs still alive ([6]; 5 μg/ml): -
